Legend:
Details in all cases: after 10, 20, 40 and 60 minutes at all dilutions 1:100 to 1:800
Candida albicans = test: Antimicrobial activity by agar dilution, Candida albicans; assay type: cell-based
Procedure: (§1) The antimicrobial properties of the synthesized compound 9-(2-hydroxyphenyl)-10-[3-(dimethylamino)propyl]-3,4,6,7,9,10-hexahydroacridine-1,8(2H,5H)-dione were studied by the method of agar dilution. Test solutions of each compound were prepared in a concentration of 1% using dimethylformamide as a solvent. Then they were diluted in a physiological solution to obtain the final experimental dilutions 1:100, 1:200, 1:400, and 1:800. The effect of these substances were compared with furacillin in a controllable study. The testing microbes used were gram positive bacteria St. Aereus, gram negative bacteria E. Coli and Ps. Aeruginosa, and Candida albicans fungi. The experiments used for this survey were meat-pentonlu agar (EPA) for cultivation of bacteria and Saburo environment for fungi. Each experiment used 1 ml of test solution on each plate 500 min. Add 2 drops of emulsified with microbes feel. All experimental samples were taken from the agar after 10, 20, 40, 60 minutes in the environment on the basis of Patrk planted. Bacteria were cultivated at a temperature of 37° C. for 1 day and the mushroom was kept in a thermostat for […] at a temperature of 28° C. Then the results were checked.

Ps. Aeruginosa = test: Antimicrobial activity by agar dilution, Ps. Aeruginosa; assay type: cell-based, Pseudomonas aeruginosa
Procedure: as §1

E. Coli = test: Antimicrobial activity by agar dilution, E. Coli; assay type: cell-based, Escherichia coli
Procedure: as §1

St. Aereus = test: Antimicrobial activity by agar dilution, St. Aereus; assay type: cell-based, Staphylococcus aureus
Procedure: as §1

CN(C)CCCN1C2=C(C(=O)CCC2)C(c2ccccc2O)C2=C1CCCC2=O [9-(2-hydroxyphenyl)-10-[3-(dimethylamino)propyl]-3,4,6,7,9,10-hexahydroacridine-1,8(2H,5H)-dione]
highest inhibition activity: inhibition activity, Candida albicans (Candida albicans) | inhibition activity, Ps. Aeruginosa (Ps. Aeruginosa) | inhibition activity, E. Coli (E. Coli) | inhibition activity, St. Aereus (St. Aereus)
